# Measured values published in US12171755B2, “PAPD5 inhibitors and methods of use thereof” (Children's Medical Center Corporation, priority 2017, dated 2024).
# Tests used:
# [1] = test system: TERC 3′ end processing in HEK 293 with stable shRNA-mediated knockdown of PARN; test: TERC 3′ end processing (3′ RACE) in PARN-deficient HEK 293 cells; assay type: cell-based; settings: PARN-deficient human cells (HEK 293, PARN shRNA knockdown), treated for 7 days; 10 µM and 100 μM; listed as entry 1 in table 1
# Method: The expected amplicons representing mature TERC versus extended forms are indicated (arrows). […] HEK 293 with stable shRNA-mediated knockdown of PARN were treated for 7 days with the Table 5, entry 1 compound.
# PAPD5 [2] = biological target: T1, PAPD5 (Homo sapiens, UniProt Q8NDF8); test: High-throughput luminescence (KinaseGlo) RNA polyadenylation assay, ATP utilization by recombinant PAPD5; assay type: biochemical; settings: for Fold-change determined at compound concentration 33 μM / Fold-change determined at compound concentration 100 μM / Fold-change determined at compound concentration 10 μM: Table 4 (entries of Table 5), ratio of luminescence with inhibitor to DMSO; for Fold-change determined at compound concentration 33 μM: 33 μM compound; for Fold-change determined at compound concentration 100 μM: higher = higher inhibition; for Fold-change determined at compound concentration 10 μM: 10 μM compound
# T1 construct: made in house
# In short: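 Recombinant PAPD5 polyadenylates an oligonucleotide substrate using ATP, and remaining ATP is read by KinaseGlo luciferase luminescence. Compound was incubated for 2 h at room temperature, then with luciferase for 10 min.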
# PAPD5 [3] = biological target: T1, PAPD5; test: PAPD5 oligonucleotide extension assay (gel), compound dose response vs ATP; assay type: biochemical; settings: recombinant PAPD5 in vitro
# Method: Candidate inhibitors are assayed at a range of concentrations in functional assays entailing extension of fluorescently-labelled RNA oligonucleotide substrates in the presence of PAPD5, followed by gel electrophoresis. […] In FIG. 5, a 20-mer 5′-fluorescently labelled RNA oligonucleotide was incubated with recombinant WT or mutant PAPD5 for 1 hour in the presence of varying concentrations of ATP, and products were visualized by polyacrylamide gel electrophoresis. It is expected that wildtype (WT) PAPD5 with PAPD5 inhibitors can have similar results. In fact, 4 compounds were selected to test the validation assay. The results were shown in FIG. 8, and were consistent with the expected results.
# Each compound tested in the assay was tested at 0 μM, 5 μM, 10 μM, 50 μM, and 100 μM. At each concentration, each compound was tested at 0 μM, 10 μM, 100 μM, and 1000 μM concentration of ATP.
# PARN exonuclease = biological target: T2, PARN exonuclease (Homo sapiens, UniProt O95453); test: Counter-screen for inhibition of PARN exonuclease; assay type: biochemical
# T2 sequence (O95453 1-639): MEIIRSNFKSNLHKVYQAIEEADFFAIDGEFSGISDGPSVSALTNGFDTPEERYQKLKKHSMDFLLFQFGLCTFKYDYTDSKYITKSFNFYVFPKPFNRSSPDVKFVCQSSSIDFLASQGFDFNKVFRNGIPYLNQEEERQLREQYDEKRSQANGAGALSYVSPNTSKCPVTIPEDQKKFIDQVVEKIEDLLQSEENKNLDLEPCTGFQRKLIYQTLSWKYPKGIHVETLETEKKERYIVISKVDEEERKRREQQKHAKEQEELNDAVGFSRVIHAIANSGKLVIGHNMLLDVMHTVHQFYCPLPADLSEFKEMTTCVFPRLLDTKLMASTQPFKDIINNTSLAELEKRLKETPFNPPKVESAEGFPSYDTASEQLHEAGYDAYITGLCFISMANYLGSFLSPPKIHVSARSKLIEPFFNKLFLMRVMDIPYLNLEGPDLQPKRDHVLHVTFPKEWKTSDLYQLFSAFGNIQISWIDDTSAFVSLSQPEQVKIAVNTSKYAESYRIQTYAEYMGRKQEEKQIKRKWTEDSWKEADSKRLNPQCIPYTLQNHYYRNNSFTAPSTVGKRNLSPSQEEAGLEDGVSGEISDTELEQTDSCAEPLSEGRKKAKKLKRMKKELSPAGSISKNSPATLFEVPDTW
# From the text: Although PARN and PAPD5 have opposing functions in TERC maturation and stabilization, PARN and PAPD5 are structurally related, and so molecules that inhibit one enzyme may inhibit the other.
# T1 sequence (Q8NDF8 68-698 isoform Q8NDF8-5): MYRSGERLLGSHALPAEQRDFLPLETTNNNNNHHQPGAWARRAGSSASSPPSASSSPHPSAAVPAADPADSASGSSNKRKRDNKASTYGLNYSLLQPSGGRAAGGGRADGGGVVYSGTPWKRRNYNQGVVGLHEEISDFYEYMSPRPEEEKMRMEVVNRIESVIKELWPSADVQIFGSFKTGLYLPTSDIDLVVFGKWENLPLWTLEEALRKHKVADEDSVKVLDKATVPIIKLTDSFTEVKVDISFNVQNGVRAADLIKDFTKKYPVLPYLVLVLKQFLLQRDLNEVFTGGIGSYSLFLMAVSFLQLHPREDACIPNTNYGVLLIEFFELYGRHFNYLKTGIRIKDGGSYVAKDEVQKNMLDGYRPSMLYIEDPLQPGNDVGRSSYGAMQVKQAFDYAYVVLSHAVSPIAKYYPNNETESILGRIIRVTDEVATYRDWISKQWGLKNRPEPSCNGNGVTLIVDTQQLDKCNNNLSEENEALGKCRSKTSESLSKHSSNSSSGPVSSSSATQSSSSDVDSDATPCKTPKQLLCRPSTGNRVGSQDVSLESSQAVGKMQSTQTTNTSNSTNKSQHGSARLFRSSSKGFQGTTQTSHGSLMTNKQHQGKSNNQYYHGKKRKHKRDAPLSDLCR
Compound,Fold-change determined at compound concentration 33 μM (PAPD5 [2]),Fold-change determined at compound concentration 100 μM (PAPD5 [2]; 100 μM compound),also measured
"CCOC(=O)c1cnc2ccc(OC(F)(F)F)cc2c1Nc1ccccc1C(=O)O [Entry 1, 2-[[3-ethoxycarbonyl-6-(trifluoromethoxy)quinolin-4-yl]amino]benzoic acid]",–,–,restoration of TERC 3′ end processing / maturation (in words) [1]: restoration of TERC maturation that is similar to that achieved by PAPD5 knockdown
"N#Cc1c[nH]n2c(NC3CCCCC3)c(-c3ccccc3F)nc12 [Entry 235, 3-(cyclohexylamino)-2-(2-fluorophenyl)-5H-imidazo[1,2-b]pyrazole-7-carbonitrile]",1.177,1.452,–
"CN1C(=O)C(c2c(-c3ccc4ccccc4c3)[nH]c3[nH]c(=O)[nH]c(=O)c23)c2ccccc21 (stereo not drawn) [Entry 236, 5-(1-methyl-2-oxo-2,3-dihydro-1H-indol-3-yl)-6-(2-naphthyl)-1H-pyrrolo[2,3-d]pyrimidine-2,4(3H,7H)-dione]",1.39,1.75,Fold-change determined at compound concentration 10 μM (PAPD5 [2]): 1.272
"COc1ccc(Cc2nccc3cc(OC)c(OC)cc23)cc1OC [Entry 237, 1-(3,4-dimethoxybenzyl)-6,7-dimethoxyisoquinoline]",1.166,1.362,–
"Cc1ccc(Cn2c(SCc3ccc(C(=O)O)cc3)nc3cccnc32)cc1 [Entry 238, 4-[[3-[(4-methylphenyl)methyl]imidazo[4,5-b]pyridin-2-yl]sulfanylmethyl]benzoic acid]",1.119,1.238,–
"CN1CCCc2cc(C(=O)NC3CCCCC3)sc21 [Entry 239, N~2~cyclohexyl-7-methyl-4,5,6,7-tetrahydrothieno[2,3-b]pyridine-2-carboxamide]",1.125,1.314,–
"Cc1ccc(-n2nc3c(=O)n(CCCC(=O)NCc4ccccc4C)nc(C)c3c2C)cc1 [Entry 240, 4-[3,4-dimethyl-2-(4-methylphenyl)-7-oxopyrazolo[3,4-d]pyridazin-6-yl]-N-[(2-methylphenyl)methyl]butanamide]",1.091,1.206,–
"NC(=O)CN1c2ccc(F)cc2-c2ccccc2S1(=O)=O [Entry 241, 2-(9-fluoro-5,5-dioxido-6H-dibenzo[c,e][1,2]thiazin-6-yl)acetamide]",1.099,1.249,–
"O=C(O)c1ccc(N2C(=O)c3[nH]nc(-c4ccccc4)c3C2c2cccc(O)c2)cc1 (stereo not drawn) [Entry 242, 4-[4-(3-hydroxyphenyl)-6-oxo-3-phenyl-1,4-dihydropyrrolo[3,4-c]pyrazol-5-yl]benzoic acid]",1.068,1.283,–
"O=c1cc(-c2cccc3c2Sc2ccccc2S3)oc(N2CCOCC2)c1 [Entry 243, 2-morpholin-4-yl-6-thianthren-1-ylpyran-4-one]",1.324,1.471,–
"N#C/C(=C\c1ccc(-c2ccc(C(=O)O)cc2)o1)C(=O)Nc1ccccc1C(=O)O [Entry 244, 2-[[(E)-3-[5-(4-carboxyphenyl)furan-2-yl]-2-cyanoprop-2-enoyl]amino]benzoic acid]",1.737,2.572,Fold-change determined at compound concentration 10 μM (PAPD5 [2]): 1.32
"N#C/C(=C\c1ccc(-c2ccc(Cl)c(C(=O)O)c2)o1)c1nc2ccccc2[nH]1 [Entry 245, 5-[5-[(E)-2-(1H-benzimidazol-2-yl)-2-cyanoethenyl]furan-2-yl]-2-chlorobenzoic acid]",1.236,1.638,–
"C=CCNC(=O)c1sc(=S)n2c1[nH]c(=O)c1cc3c(cc12)OCO3 [N-allyl-5-oxo-1-thioxo-4,5-dihydro[1,3]dioxolo[4,5-g][1,3]thiazolo[3,4-a]quinazoline-3-carboxamide]",–,–,fold change at 100 μM concentration in the assay (PAPD5 [2]; 100 μM compound): 3.1
"CCOC(=O)c1cnc2ccc(OC(F)(F)F)cc2c1Nc1ccccc1C(=O)O [entry 1 in Table 5, 2-[[3-ethoxycarbonyl-6-(trifluoromethoxy)quinolin-4-yl]amino]benzoic acid]",–,–,inhibition of PAPD5 (in words) (PAPD5 [3]): inhibit PAPD5; inhibition of PARN exonuclease (in words) (PARN exonuclease): do not inhibit PARN
"CCc1ccc2ncc(C(=O)c3ccc(C)c(C)c3)c(N3CCC(C(N)=O)CC3)c2c1 [entry 2 in Table 5, 1-[3-(3,4-dimethylbenzoyl)-6-ethylquinolin-4-yl]piperidine-4-carboxamide]",–,–,inhibition of PAPD5 (in words) (PAPD5 [3]): inhibit PAPD5; inhibition of PARN exonuclease (in words) (PARN exonuclease): do not inhibit PARN
